Values joined by “and” are separate entries in the source; they are usually repeats but may differ in a detail not shown here. Identical values can stand only once.
Assays:
[1] = test system: A. thaliana seedlings; test: In planta seedling development and root length on GM/MS media; type: in vivo; conditions: for Normalised root / Root Length: individual plants 1-20
Experimental: Gamborg modified/Murashige Skoog (GM/MS) media and soil were prepared as according to Table 6.
A. thaliana seeds were sterilised including a 15 min wash step in 10% (v/v) commercial bleach without the addition of detergents. All plants were grown in a controlled environment room (CER) at 22±5° C. with 16 hrs: 8 hrs light: dark, 50-60% humidity under cool-white fluorescent light. Plants grown on soil were regularly watered and relocated within the CER.
Basta was employed as a positive control at a final recommended concentration of 10 μg/mL (50 μM). Negative controls included 0% (v/v) DMSO (H2O) and 1% (v/v) DMSO (vehicle). Media was poured into 100 mL plates and allowed to set before adding 20 sterilised seeds per plate. Seeds were then stratified at 4° C. for 72 hrs in a dark room prior to relocation into a CER.
The resulting growth plates were monitored daily and allowed to grow in an upright position for up to 14 days post stratification to determine the average root length using ImageJ analysis. Experiments were carried out in triplicates. Results were statistically validated using t-tests employing GraphPad Prism.

[2] = test system: human kidney cells (HEK293); test: MTT viability assay; conditions: for % Viability Remaining 1 / % Viability Remaining 2 / % Viability Remaining 3: 48 hrs
Experimental: (§1) Cells were harvested and resuspended in growth media (5-10 ml) to count. Cells were diluted to the appropriate concentration (5×10^3), and seeded into 96-well plates as follows: (a) 50 μl of cells per well, (b) 100 μl of growth media in the Blank wells, (c) 100 μl PBS in outer wells (to prevent dehydration of media from the cells). Cells were incubated overnight at 37° C. (5% CO2).
(§2) Compounds were prepared as serial dilutions in growth media. Each treatment concentration was performed in triplicate. 50 μl/well of prepared compound was added to cells.
(§3) A no treatment triplicate (100% viability) was also included by adding 50 μl of growth media to cells. Plates were returned to the incubator for 48 hrs.
(§4) MTT powder in 1×PBS was prepared at 5 mg/ml and filter sterilised. MTT was added to serum-free media to a final concentration of 1 mg/ml. 100 μl of the MTT solution (1 mg/ml) was added to each well, including 0 μM and blank wells. Plates were incubated at 37° C. in incubator for 3 hrs. Following incubation, the media was removed from wells without disrupting the purple crystals formed. 100 μl of DMSO was added to each well using a multichannel pipette. The plates were shaken on the plate shaker until all the crystals have dissolved. The absorbance was measured at 570 nm using a plate reader. The data was analysed using Microsoft Excel. For each treatment concentration the average was calculated, the blank was subtracted and the cell viability was determined as a percentage of the no treatment control (DMSO vehicle control).

[3] = test system: human liver cells (HepG2); test: MTT viability assay; conditions: for % viability 1 / % viability 2 / % viability 3: 48 hrs
Experimental: as §1, §2, §3, §4

## COc1ccc(/C=C2\SC(=O)N(CC(=O)O)C2=O)cc1 [Compound 5, (Z)-2-(5-(4-Methoxybenzylidene)-2,4-dioxothiazolidin-3-yl)acetic Acid]
[1]; 15.6 μM in GM/MS media
  Normalised root: 82.76 and 96.69 and 73.74 and 70.27 and 71.53 and 139.9 and 115.3 and 146.5 and 77.53 and 88.03 and 73.65 and 65.55 and 78.22 and 74.81 and 104.1 and 65.25 and 3.437 and 81.45 and 65.88 and 72.75
  Root Length: 2.769 cm and 3.235 cm and 2.467 cm and 2.351 cm and 2.393 cm and 4.682 cm and 3.856 cm and 4.902 cm and 2.594 cm and 2.945 cm and 2.464 cm and 2.193 cm and 2.617 cm and 2.503 cm and 3.482 cm and 2.183 cm and 0.115 cm and 2.725 cm and 2.204 cm and 2.434 cm
[1]; 31.3 μM in GM/MS media
  Normalised root: 88.38 and 1.793 and 71.56 and 59.48 and 79.48 and 5.948
  Root Length: 2.957 cm and 0.06 cm and 2.394 cm and 1.99 cm and 2.659 cm and 0.199 cm
[1]; 62.5 μM in GM/MS media
  Normalised root: 7.413 and 36.02 and 1.315 and 72.21 and 57.81 and 43.67 and 43.88 and 58.91 and 47.85 and 54.64 and 35.81 and 30.88 and 2.78 and 15.18 and 44.24 and 60.59
  Root Length: 0.248 cm and 1.205 cm and 0.044 cm and 2.416 cm and 1.934 cm and 1.461 cm and 1.468 cm and 1.971 cm and 1.601 cm and 1.828 cm and 1.198 cm and 1.033 cm and 0.093 cm and 0.508 cm and 1.48 cm and 2.027 cm
[1]; 125 μM in GM/MS media
  Normalised root: 17.75 and 24.42 and 18.71 and 21.94 and 21.31 and 20.59 and 21.58 and 22.78 and 6.905 and 15.15 and 6.636 and 15.69 and 16.44 (2×) and 2.062 and 14.11 and 1.016 and 19.97 and 13.33 and 0.8668
  Root Length: 0.594 cm and 0.817 cm and 0.626 cm and 0.734 cm and 0.713 cm and 0.689 cm and 0.722 cm and 0.762 cm and 0.231 cm and 0.507 cm and 0.222 cm and 0.525 cm and 0.55 cm (2×) and 0.069 cm and 0.472 cm and 0.034 cm and 0.668 cm and 0.446 cm and 0.029 cm
[1]; 250 μM in GM/MS media
  Normalised root: 3.019 and 3.856 and 2.63 and 2.989 (2×) and 4.693 and 3.049 and 0.3886 and 5.021 and 2.541 and 2.451 and 12.37 and 5.051 and 4.812 and 3.497 and 2.361 and 1.225 and 2.272 and 0.8668 and 0.4185
  Root Length: 0.101 cm and 0.129 cm and 0.088 cm and 0.1 cm (2×) and 0.157 cm and 0.102 cm and 0.013 cm and 0.168 cm and 0.085 cm and 0.082 cm and 0.414 cm and 0.169 cm and 0.161 cm and 0.117 cm and 0.079 cm and 0.041 cm and 0.076 cm and 0.029 cm and 0.014 cm
[1]; 500 μM in GM/MS media
  Normalised root: 0.807 and 0.9565 (3×) and 0.5978 and 2.72 and 0.4185 (2×) and 0.7472 and 0.9266 and 0.2391 and 0.3587 and 0.8668 and 1.375 and 1.315 and 3.348 and 1.853 and 0.9864
  Root Length: 0.027 cm and 0.032 cm (3×) and 0.02 cm and 0.091 cm and 0.014 cm (2×) and 0.025 cm and 0.031 cm and 0.008 cm and 0.012 cm and 0.029 cm and 0.046 cm and 0.044 cm and 0.112 cm and 0.062 cm and 0.033 cm
[1]; concentrations 125 μM and higher
  seedling development: did not develop past the point of hypocotyl formation
[1]; highest concentrations tested
  development and growth of A. thaliana (leaves): lack of any chlorophyll containing leaves
[2]; HEK293, 12.5 μM
  % Viability Remaining 1: 105%
  % Viability Remaining 2: 103%
  % Viability Remaining 3: 85.0%
[2]; HEK293, 25 μM
  % Viability Remaining 1: 105%
  % Viability Remaining 2: 103%
  % Viability Remaining 3: 85.0%
[2]; HEK293, 50 μM
  % Viability Remaining 1: 92.3%
  % Viability Remaining 2: 101%
  % Viability Remaining 3: 90.8%
[2]; HEK293, 100 μM
  % Viability Remaining 1: 106%
  % Viability Remaining 2: 103%
  % Viability Remaining 3: 82.8%
[2]; HEK293, 200 μM
  % Viability Remaining 1: 82.7%
  % Viability Remaining 2: 86.0%
  % Viability Remaining 3: 84.9%
[2]; HEK293, 400 μM
  % Viability Remaining 1: 96.4%
  % Viability Remaining 2: 91.3%
  % Viability Remaining 3: 89.1%
[2]; HEK293, MTT, up to 400 μM (Defensin 100 μM)
  toxicity to HEK293 cells (in words): effectively nontoxic
[3]; HepG2, 12.5 μM
  % viability 1: 111%
  % viability 2: 107%
  % viability 3: 105%
[3]; HepG2, 25 μM
  % viability 1: 111%
  % viability 2: 106%
  % viability 3: 105%
[3]; HepG2, 50 μM
  % viability 1: 102%
  % viability 2: 91.9%
  % viability 3: 104%
[3]; HepG2, 100 μM
  % viability 1: 111%
  % viability 2: 105%
  % viability 3: 84.8%
[3]; HepG2, 200 μM
  % viability 1: 78.7%
  % viability 2: 110%
  % viability 3: 94.4%
[3]; HepG2, 400 μM
  % viability 1: 82.1%
  % viability 2: 84.9%
  % viability 3: 92.5%
[3]; HepG2, MTT, up to 400 μM (Defensin 100 μM)
  toxicity to HepG2 cells (in words): effectively nontoxic

From patent US20200068890A1 (Person to Whom the Inventor is Obligated to Assign, priority 2017, published 2020)
